Test results as given in US20250144067A1, “PERSONALIZED STARVATION THERAPY FOR CANCER” (Faeth Therapeutics, Inc., priority 2021, published 2025).
Counter-ions that a name gives are not always drawn. Like-named read-outs stand apart in the source and are kept apart here.

Legend:
[1] = system: NCI-H292 lung cancer cells; assay: FDA drug screening, complete media vs cholesterol-free media with simvastatin (TABLE 2); format: cell-based, human
[2] = system: NCI-H292 lung cancer cells; assay: FDA drug screening, complete media vs cholesterol-free media without statin (TABLE 1); format: cell-based, human
[3] = NCI-H292 cells, cholesterol-free media with simvastatin 0.04 μM, cell growth value in FDA drug screen
[4] = NCI-H292 cells, complete media, cell growth value in FDA drug screen
[5] = complete media minus cholesterol-free media + simvastatin, >0 enhanced anti-cancer activity, about 0 neutral, <0 antagonist
[6] = Complete minus Cholesterol-free, >0 enhanced anti-cancer activity, about 0 neutral, <0 antagonist
[7] = NCI-H292 cells, cholesterol-free media without statin, FDA drug library screen
[8] = NCI-H292 cells, complete media, FDA drug library screen
[9] = NCI-H292 cells, FDA library drug in cholesterol-free media with simvastatin 0.04 μM
[10] = NCI-H292 cells, FDA library drug in complete media
[11] = complete media vs cholesterol-free media + simvastatin (0.04 μM), >0 enhanced anti-cancer activity, about 0 neutral, <0 antagonist
[12] = complete vs cholesterol-free media, >0 enhanced anti-cancer activity, about 0 neutral, <0 antagonist
[13] = NCI-H292 cells, drug in cholesterol-free media with simvastatin 0.04 μM
[14] = NCI-H292 cells, drug in complete media
[15] = Complete minus Cholesterol-free, greater than 0 enhanced anti-cancer activity, about 0 neutral, below 0 antagonist
[16] = NCI-H292 cells, FDA drug library screen, cholesterol-free media without statin
[17] = NCI-H292 cells, FDA drug library screen, complete media
[18] = NCI-H292 cells, cholesterol-free media without statin
[19] = complete media minus cholesterol-free media + simvastatin (0.04 μM), >0 enhanced anti-cancer activity, about 0 neutral, <0 antagonist
[20] = complete vs cholesterol-free media, greater than 0 enhanced anti-cancer activity, about 0 neutral, below 0 antagonists
[21] = NCI-H292 cells, FDA drug library screen, cholesterol-free media with simvastatin 0.04 μM

Compound: O=C1[C@H](CC[C@H](O)c2ccc(F)cc2)[C@@H](c2ccc(O)cc2)N1c1ccc(F)cc1 [Ezetimibe]
- Cholesterol-free media + simvastatin (0.04 μM) [1, 3]: 1.247
- Complete Media [1, 4]: 1.268
- Difference [1, 5]: 0.02
- Difference ([2]; Complete minus Cholesterol-free, greater than 0 enhanced anti-cancer activity, about 0 neutral, below 0 antagonists): −0.66
- Cholesterol-free ([2]; NCI-H292 cells in cholesterol-free media without statin): 1.871
- Complete ([2]; NCI-H292 cells in complete media): 1.209

Compound: Sisomicin (sulfate)
- Cholesterol-free media + simvastatin (0.04 μM) [1, 3]: 0.697
- Complete Media [1, 4]: 0.7346
- Difference [1, 5]: 0.04
- Difference [2, 6]: −0.04
- Cholesterol-free [2, 7]: 0.9293
- Complete [2, 8]: 0.8918

Compound: CC1=C(C(=O)O)N2C(=O)[C@@H](NC(=O)[C@H](N)C3=CCC=CC3)[C@H]2SC1 [Cephradine]
- Cholesterol-free media + simvastatin (0.04 μM) [1, 9]: 1.213
- Complete Media [1, 10]: 0.8523
- Difference [1, 11]: −0.36
- Cholesterol-free [2, 7]: 0.9298
- Complete [2, 8]: 1.756
- Difference [2, 12]: 0.83

Compound: OCCN1C[C@H](O)[C@@H](O)[C@H](O)[C@H]1CO [Miglitol]
- Cholesterol-free media + simvastatin (0.04 μM) [1, 13]: 1.367
- Complete Media [1, 14]: 1.199
- Difference [1, 11]: −0.17
- Difference [2, 15]: −0.11
- Cholesterol-free [2, 16]: 0.916
- Complete [2, 17]: 0.8049

Compound: C[C@H](O)[C@H](O)[C@H]1CNc2nc(N)[nH]c(=O)c2N1 [Tetrahydrobiopterin]
- Cholesterol-free media + simvastatin (0.04 μM) [1, 9]: 1.389
- Complete Media [1, 10]: 1.025
- Difference [1, 11]: −0.36
- Difference [2, 15]: −0.10
- Cholesterol-free [2, 16]: 0.9498
- Complete [2, 17]: 0.8545

Compound: OCCOCCN1CCN(C2=Nc3ccccc3Sc3ccccc32)CC1 [Quetiapine]
- Cholesterol-free media + simvastatin (0.04 μM) [1, 3]: 0.8037
- Complete Media [1, 4]: 0.9281
- Difference [1, 5]: 0.12
- Difference [2, 15]: −0.09
- Cholesterol-free [2, 16]: 0.8483
- Complete [2, 17]: 0.7581

Compound: COc1cc(NS(=O)(=O)c2ccc(N)cc2)nc(OC)n1 [Sulfadimethoxine (sodium)]
- Cholesterol-free media + simvastatin (0.04 μM) [1, 9]: 1.876
- Complete Media [1, 10]: 1.521
- Difference [1, 11]: −0.35
- Difference [2, 6]: −0.30
- Cholesterol-free [2, 18]: 1.031
- Complete ([2]; NCI-H292 cells, complete media): 0.7288

Compound: Tandospirone (citrate)
- Difference [1, 19]: 0.00
- Cholesterol-free [2, 18]: 1.167
- Complete ([2]; NCI-H292 cells, complete media): 0.8565
- Difference [2, 20]: −0.31

Compound: CC(C(=O)O)c1ccc(C(=O)c2cccs2)cc1 (stereo not drawn) [Suprofen]
- Cholesterol-free media + simvastatin (0.04 μM) [1, 3]: 0.9436
- Complete Media [1, 4]: 0.9637
- Difference [1, 5]: 0.02
- Difference [2, 6]: −0.28
- Cholesterol-free [2, 18]: 1.108
- Complete ([2]; NCI-H292 cells, complete media): 0.8283

Compound: COc1cc2c(c(OC)c1OC)-c1ccc(OC)c(=O)cc1[C@@H](NC(C)=O)CC2 [Colchicine]
- Cholesterol-free media + simvastatin (0.04 μM) [1]: 0.1971
- Complete Media [1]: 0.2205
- Difference [1]: 0.02
- Cholesterol-free [2]: 0.1135
- Complete [2]: 0.07073
- Difference [2]: −0.04

Compound: O=C1CCC[C@@H]2[C@H]3CCCN4CCC[C@H](CN12)[C@@H]34 [Sophoridine]
- Cholesterol-free media + simvastatin (0.04 μM) [1, 9]: 1.337
- Complete Media [1, 10]: 1.063
- Difference ([1]; complete media vs cholesterol-free media + simvastatin (0.04 μM), […]): −0.27
- Cholesterol-free [2, 18]: 1.507
- Complete ([2]; NCI-H292 cells, complete media): 1.042
- Difference ([2]; complete vs cholesterol-free media, […]): −0.46

Compound: CN(C)C(=O)Oc1cc(OC(=O)N(C)C)cc(C(O)CNC(C)(C)C)c1 (stereo not drawn) [Bambuterol hydrochloride]
- Cholesterol-free media + simvastatin (0.04 μM) [1, 3]: 1.184
- Complete Media [1, 4]: 1.226
- Difference [1, 5]: 0.04
- Cholesterol-free [2, 7]: 1.362
- Complete [2, 8]: 1.472
- Difference [2, 12]: 0.11

Compound: CCC(=O)NS(=O)(=O)c1ccc(-c2c(-c3ccccc3)noc2C)cc1 [Parecoxib (Sodium)]
- Cholesterol-free media + simvastatin (0.04 μM) [1, 21]: 2.419
- Difference [1, 19]: −1.17
- Difference [2, 15]: −0.08
- Cholesterol-free [2, 16]: 0.9327
- Complete [2, 17]: 0.8551

Compound: CC(C)[C@H](N)C(=O)O [L-Valine]
- Cholesterol-free media + simvastatin (0.04 μM) ([1]; NCI-H292 cells, cholesterol-free media with simvastatin 0.04 μM, […]): 0.8399
- Complete Media ([1]; NCI-H292 cells, complete media, […]): 0.8676
- Difference ([1]; complete media minus cholesterol-free media + simvastatin, […]): 0.03
- Difference ([2]; Complete minus Cholesterol-free, […]): −0.26
- Cholesterol-free [2, 18]: 1.382
- Complete ([2]; NCI-H292 cells, complete media): 1.127

Compound: CCOc1ccc(Cc2cc([C@]34OC[C@](CO)(O3)[C@@H](O)[C@H](O)[C@H]4O)ccc2Cl)cc1 [Ertugliflozin]
- Cholesterol-free media + simvastatin (0.04 μM) [1, 3]: 1.703
- Complete Media [1, 4]: 1.808
- Difference [1, 5]: 0.10
- Difference [2, 15]: −0.08
- Cholesterol-free [2, 16]: 1.071
- Complete [2, 17]: 0.9907

Compound: COc1cc2nccc(Oc3ccc(NC(=O)Nc4cc(C)on4)c(Cl)c3)c2cc1OC [Tivozanib]
- Cholesterol-free media + simvastatin (0.04 μM) [1, 21]: 0.868
- Complete Media [1, 17]: 1.06
- Difference [1, 5]: 0.19
- Cholesterol-free [2, 18]: 1.298
- Complete ([2]; NCI-H292 cells, complete media): 0.868
- Difference [2, 20]: −0.43

Compound: Cc1ccc2c(Cl)cc(Cl)c(O)c2n1 [Chlorquinaldol]
- Cholesterol-free media + simvastatin (0.04 μM) ([1]; NCI-H292 cells, cholesterol-free media with simvastatin 0.04 μM, FDA drug library screen (TABLE 2)): 0.0008861
- Complete Media ([1]; NCI-H292 cells, complete media, FDA drug library screen (TABLE 2)): 0.007501
- Difference [1, 19]: 0.01
- Difference [2, 6]: 0.01
- Cholesterol-free [2, 7]: 0.003949
- Complete [2, 8]: 0.01849

Compound: COC(=O)C1=C(C#N)NC(C)=C(C(=O)OC(C)C)C1c1cccc([N+](=O)[O-])c1 (stereo not drawn) [Nilvadipine]
- Cholesterol-free media + simvastatin (0.04 μM) [1, 13]: 1.579
- Complete Media [1, 14]: 1.393
- Difference [1, 11]: −0.19
- Difference [2, 6]: −0.27
- Cholesterol-free [2, 18]: 1.059
- Complete ([2]; NCI-H292 cells, complete media): 0.7875

Compound: Cc1cc2ncc(C(=O)NCC(C)(C)NCC(=O)N3CCC[C@H]3C#N)cn2n1 [Anagliptin]
- Cholesterol-free media + simvastatin (0.04 μM) [1, 21]: 1.09
- Complete Media [1, 17]: 0.9692
- Difference [1, 11]: −0.12
- Difference [2, 6]: −0.23
- Cholesterol-free [2, 18]: 1.234
- Complete ([2]; NCI-H292 cells, complete media): 1.003

Compound: COc1cccc(CCc2ccccc2OCC(CN(C)C)OC(=O)CCC(=O)O)c1 (stereo not drawn) [Sarpogrelate (hydrochloride)]
- Cholesterol-free media + simvastatin (0.04 μM) [1, 9]: 1.378
- Complete Media [1, 10]: 1.089
- Difference [1, 11]: −0.29
- Cholesterol-free [2, 18]: 1.015
- Complete ([2]; NCI-H292 cells, complete media): 0.6472
- Difference [2, 20]: −0.37
